According to patent US20260325542A1, “CANCER TARGETING COMPLEX, AND COMPOSITION COMPRISING SAME FOR PREVENTING OR TREATING CANCER” (EWHA UNIVERSITY - INDUSTRY COLLABORATION FOUNDATION, priority 2023, published 2026):

What was measured:
[1] = system: major organs and cancer tissue; assay: Ex vivo biodistribution in major organs and cancer tissue; set-up: species or system mouse; conditions: 24 hours after i.v. 3 mg/kg
Method: (§1) 5-week-old female Balb/c and Balb/c nu/nu mice were purchased from NaraBio, Inc (Seoul, Republic of Korea). The mice underwent a 2-week acclimatization period before the example. The mice were raised under free-feeding conditions in a breeding room maintained at a temperature of 22±2° C. and humidity of 40-60% during the example. The light and dark cycle was regulated at 12-hour intervals. All examples were conducted in compliance with the relevant laws and institutional guidelines of the KIST Institutional Animal Care and Use Committee (IACUC; Approval No.: 2021-143).
Cancer animal models were prepared by inoculating 1×10^6 4T1 cells into the left thigh of the mice, and raising them until the tumor volume reached 150-200 mm3.
Samples were prepared as follows to analyze the in vivo therapeutic effect of the complex for cancer targeting (ECMal-PROTAC) of example 1. A Cy5.5-BSA solution (Cy5.5-Alb, Preparation Example 1, 200 μM) diluted with PBS was co-incubated by mixing it with an ECMal-PROTAC aqueous solution (140 μM) of example 1 at a 1:1 volume ratio. […]
To analyze the sample distribution in the excised cancer tissue, the excised major organs and cancer tissue were imaged with the IVIS Lumina Series III system (PerkinElmer, Waltham, MA, USA) and analyzed with Living Image software (PerkinElmer).

thiol-blocked BSA = thiol-blocked BSA (Bos taurus, UniProt P02769); assay: Selective binding: thiol-blocked BSA, RP-HPLC; set-up: species or system bovine; conditions: thiol-blocked BSA 200 μM, ECMal-PROTAC 140 μM, up to 60 minutes
Method: To confirm whether the binding of ECMal-PROTAC of example 1 and albumin is specific, thiol-blocked BSA was used. Specifically, thiol-blocked BSA was prepared by mixing 4-maleimidobutyric acid and BSA with a cyc34 blocking agent. The thiol-blocked BSA was diluted with PBS to prepare a solution (200 μM). This was co-incubated by mixing it with the ECMal-PROTAC aqueous solution (140 μM) of example 1 at a 1:1 volume ratio. The culture was collected at incubation times of 0 minutes, 5 minutes, 30 minutes, and 60 minutes. It was quenched with mercaptoethanol, and HPLC spectra for each sample were acquired through concentration gradient of the eluent (ACN/H2O, 20/80 to 80/20 (v/v), 30 minutes).
(§2) From the HPLC results for the BSA and complex for cancer targeting (ECMal-PROTAC) mixture in Experimental Example 1 and the thiol-blocked BSA and complex for cancer targeting (ECMal-PROTAC) mixture in Experimental Example 2, the reduction in the HPLC peak area associated with the complex for cancer targeting (ECMal-PROTAC) was quantified.

[2] = target: T1, BSA (bovine serum albumin) (Bos taurus, UniProt P02769); assay: In vitro binding of ECMal-PROTAC to albumin (thiol-maleimide reaction), RP-HPLC; conditions: BSA 200 μM, ECMal-PROTAC 140 μM, 1:1 volume ratio
T1 construct: free Cys34 thiol reacts with maleimide
Method: The binding rate of ECMal-PROTAC from example 1 and albumin was confirmed through RP-HPLC. Specifically, a BSA solution (200 μM) diluted with PBS was co-incubated by mixing it with an ECMal-PROTAC aqueous solution (140 μM) of example 1 at a 1:1 volume ratio. The culture was collected at incubation times of 0 minutes, 5 minutes, 30 minutes, and 60 minutes. It was quenched with mercaptoethanol, and HPLC spectra for each sample were acquired through concentration gradient of the eluent (ACN/H2O, 20/80 to 80/20 (v/v), 30 minutes).
To verify the albumin binding ability of the complex for cancer targeting (ECMal-PROTAC) of example 1, the mixture of BSA and the complex for cancer targeting (ECMal-PROTAC) was analyzed by LC-MS spectrum, and compared with the LC-MS spectrum of free BSA.
FIG. 4 is the HPLC spectrum of a mixture of BSA and the complex for cancer targeting (ECMal-PROTAC). According to this, it can be seen that BSA and the complex for cancer targeting (ECMal-PROTAC) rapidly bind through a thiol-maleimide click chemical reaction. To confirm the albumin binding ability of the complex for cancer targeting (ECMal-PROTAC) of example 1, bovine serum albumin (BSA), which has a structure similar to human serum albumin (HSA), was used for analysis.
At this time, the HPLC spectra were also analyzed for a co-incubation of ARV-771 (140 μM) and BSA solution (200 μM) mixed at a 1:1 volume ratio as a comparative example, and for the ECMal-PROTAC solution and BSA solution alone without any treatment of example 1.
as §2

[3] = Body weight and systemic side effects; assay type: in vivo, mouse; conditions: 10 mg/kg, i.v., once every 3 days for 15 days
Method: (§3) The control group was administered saline (10 mg/kg) once every 3 days for 15 days through the tail vein (total 4 administrations). The comparison group was administered ARV-771 (10 mg/kg) once every 3 days for 15 days through the tail vein (total 4 administrations). The example group was administered ECMal-PROTAC 10 mg/kg (wquiv. to ARV-771) of example 1 once every 3 days for 15 days through the tail vein (total 4 administrations).
(§4) Tumor size and body weight were measured every two days for the control group, the comparison group, and the example group.

4T1 tumor = assay: In vivo anticancer efficacy, tumor size in 4T1 cancer animal model; set-up: species or system mouse
Method: as §1
Cancer animal models were prepared by inoculating 1×10^6 4T1 cells into the left thigh of the mice, and raising them until the tumor volume reached 50-80 mm^3.
For the preparation of the control group, the comparison group, and the example group, mice were randomly divided into groups of 5.
as §3, §4

Bcl-2 = assay: Western blot of excised cancer tissue, Bcl-2; assay type: in vivo, mouse
Method: as §3

T1 sequence (P02769 25-607): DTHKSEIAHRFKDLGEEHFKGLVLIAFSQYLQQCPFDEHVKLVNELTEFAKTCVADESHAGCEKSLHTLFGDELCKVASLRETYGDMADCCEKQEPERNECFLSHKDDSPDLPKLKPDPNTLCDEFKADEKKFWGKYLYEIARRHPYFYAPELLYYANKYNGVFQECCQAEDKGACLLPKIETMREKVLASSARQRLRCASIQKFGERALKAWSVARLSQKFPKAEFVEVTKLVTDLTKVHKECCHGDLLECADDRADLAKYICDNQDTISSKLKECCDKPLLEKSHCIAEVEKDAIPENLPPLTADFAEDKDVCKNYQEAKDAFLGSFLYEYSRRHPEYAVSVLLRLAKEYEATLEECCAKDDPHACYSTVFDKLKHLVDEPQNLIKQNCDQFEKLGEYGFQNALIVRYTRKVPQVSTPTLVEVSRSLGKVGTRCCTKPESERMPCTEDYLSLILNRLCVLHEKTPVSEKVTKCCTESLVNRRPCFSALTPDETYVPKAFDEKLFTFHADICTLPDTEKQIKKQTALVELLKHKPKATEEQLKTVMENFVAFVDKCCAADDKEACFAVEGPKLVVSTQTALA
Sequence of thiol-blocked BSA (P02769 25-607): as above

elimination through the kidneys [1]: very low probability of kidney excretion
interaction with thiol-blocked BSA (thiol-blocked BSA): did not form an interaction
completion of thiol-maleimide reaction with BSA within 3 minutes ([2]; within 3 minutes): more than 75%
completion of thiol-maleimide reaction with BSA within 10 minutes ([2]; within 10 minutes): 100%
SMILES: Cc1ncsc1-c1ccc([C@H](C)NC(=O)[C@@H]2C[C@@H](OC(=O)CCCCn3nnc4c3CCC3C(CC4)C3COC(=O)NCCOCCOCCNC(=O)CCN3C(=O)C=CC3=O)CN2C(=O)[C@@H](NC(=O)COCCCOCCNC(=O)C[C@@H]2N=C(c3ccc(Cl)cc3)c3c(sc(C)c3C)-n3c(C)nnc32)C(C)(C)C)cc1 (some centres unmarked) [ECMal-PROTAC]
systemic side effects [3]: did not show serious systemic side effects
weight loss [3]: no significant weight loss was observed
cancer size / increase in cancer size (4T1 tumor; 10 mg/kg equiv. to ARV-771, 15 days): significantly reduced
tumor volume, fold smaller than comparison group (4T1 tumor; 10 mg/kg equiv. to ARV-771, after 15 days, vs ARV-771 10 mg/kg): 5.3 times
tumor volume, fold smaller than control group (4T1 tumor; 10 mg/kg equiv. to ARV-771, after 15 days, vs saline): 6.1 times
tumor volume after 15 days (4T1 tumor; 10 mg/kg equiv. to ARV-771, tail vein, once every 3 days for 15 days): 176.13±81.62 mm3
tumor size (optical image) (4T1 tumor; excised after 15 days (FIG. 26)): much smaller tumor size than the other groups
Bcl-2 level in cancer tissue vs control (Bcl-2; Western blot, 10 mg/kg): much lower levels
Bcl-2 level in cancer tissue, example group vs comparison group (Bcl-2; Western blot, vs ARV-771 group (so in the source)): no significant difference
relative expression level of Bcl-2, fold lower than control group (Bcl-2; cancer tissue, FIG. 32): 2.3 times
